ChEMBL document CHEMBL1201862, “PubChem BioAssay data set” (2004)
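Where inhibition never reached the appropriate level, the endpoint shown equals the highest concentration tested. Otherwise, values were interpolated linearly from a five-concentration, 48-hour dose response in 96-well plates. GI50 marks 50% less growth.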 Calls of active or inactive are those of the source. Rule as the data show it: active = GI50 up to about 1.1 µM and inactive = higher.

Key:
Test in all cases: DTP human tumour cell line panel, 48 h
HCT-116 = tested on: HCT-116
UACC-62 = tested on: UACC-62
NCI-H226 = tested on: NCI-H226
OVCAR-8 = tested on: OVCAR-8
HCC 2998 = tested on: HCC 2998
OVCAR-4 = tested on: OVCAR-4
U-251 = tested on: U-251
RPMI-8226 = tested on: RPMI-8226
SN12C = tested on: SN12C
SK-MEL-28 = tested on: SK-MEL-28
DLD-1 = tested on: DLD-1
CCRF-CEM = tested on: CCRF-CEM
SF-295 = tested on: SF-295
SF-539 = tested on: SF-539
K562 = tested on: K562
LOX IMVI = tested on: LOX IMVI
HCT-15 = tested on: HCT-15
M14 = tested on: M14
EKVX = tested on: EKVX
SK-MEL-2 = tested on: SK-MEL-2

SMILES	GI50 (HCT-116)	GI50 (UACC-62)	GI50 (NCI-H226)	GI50 (OVCAR-8)	GI50 (HCC 2998)	GI50 (OVCAR-4)	GI50 (U-251)	GI50 (RPMI-8226)	GI50 (SN12C)	GI50 (SK-MEL-28)	GI50 (DLD-1)	GI50 (CCRF-CEM)	GI50 (SF-295)	GI50 (SF-539)	GI50 (K562)	GI50 (LOX IMVI)	GI50 (HCT-15) [µM]	GI50 (M14)	GI50 (EKVX)	GI50 (SK-MEL-2)
O=C(CC1Sc2ccccc2NC1=O)Nc1ccccc1[N+](=O)[O-] (stereo unspecified)	> 100 µM (inactive)	> 100 µM (inactive)	> 100 µM (inactive)	> 100 µM (inactive)	> 100 µM (inactive)	> 100 µM (inactive)	> 100 µM (inactive)	> 100 µM (inactive)	> 100 µM (inactive)	> 100 µM (inactive)	> 100 µM (inactive)	> 100 µM (inactive)	> 100 µM (inactive)	> 100 µM (inactive)	> 100 µM (inactive)	> 100 µM (inactive)	> 100	> 100 µM (inactive)	> 100 µM (inactive)	> 100 µM (inactive)
Cc1n(CC(=O)c2ccc([N+](=O)[O-])cc2)c2c([n+]1CC(C)C)C(=O)c1ccccc1C2=O	< 0.02 µM (active)	< 0.0334 µM (active)	< 0.0111 µM (active)	< 0.01 µM (active)		< 0.0178 µM (active)	< 0.01 µM (active)	< 0.01 µM (active)	< 0.01 µM (active)	0.0411 µM (active)	< 0.0394 µM (active)	< 0.0172 µM (active)	0.329 µM (active)	< 0.01 µM (active)	< 0.01 µM (active)	< 0.01 µM (active)	2.88		< 0.0109 µM (active)	< 0.0123 µM (active)
O=C1C(Cl)N(c2ccc([N+](=O)[O-])cc2)C1c1c[nH]c2ccccc12 (stereo unspecified)	55.5 µM (inactive)	51.3 µM (inactive)		> 100 µM (inactive)		53 µM (inactive)	62.5 µM (inactive)	30.8 µM (inactive)	> 100 µM (inactive)	> 100 µM (inactive)	38.1 µM (inactive)	9.25 µM (inactive)	> 100 µM (inactive)	33 µM (inactive)	55 µM (inactive)			64.7 µM (inactive)	> 100 µM (inactive)	> 100 µM (inactive)
c1ccc([P+](Cc2csnn2)(c2ccccc2)c2ccccc2)cc1	> 100 µM (inactive)	57.8 µM (inactive)	> 100 µM (inactive)	> 100 µM (inactive)	> 100 µM (inactive)	> 100 µM (inactive)	> 100 µM (inactive)	> 100 µM (inactive)	> 100 µM (inactive)	> 100 µM (inactive)	> 100 µM (inactive)	> 100 µM (inactive)	> 100 µM (inactive)	> 100 µM (inactive)		> 100 µM (inactive)	> 100	> 100 µM (inactive)	> 100 µM (inactive)	> 100 µM (inactive)
CCCCSCCC(N)P(=O)(O)O (stereo unspecified)	> 100 µM (inactive)		> 100 µM (inactive)	> 100 µM (inactive)	> 100 µM (inactive)	> 100 µM (inactive)	> 100 µM (inactive)	> 100 µM (inactive)	> 100 µM (inactive)	> 100 µM (inactive)		> 100 µM (inactive)	> 100 µM (inactive)		> 100 µM (inactive)	> 100 µM (inactive)	> 100	> 100 µM (inactive)		> 100 µM (inactive)
COc1cccc(CC2Cc3ccccc3CC(=O)N2)c1 (stereo unspecified)	49 µM (inactive)	39.8 µM (inactive)	20.8 µM (inactive)	53.8 µM (inactive)	72.1 µM (inactive)	> 100 µM (inactive)	47.1 µM (inactive)	37.6 µM (inactive)	69 µM (inactive)	54.2 µM (inactive)		58.3 µM (inactive)	34.9 µM (inactive)	88.5 µM (inactive)	80 µM (inactive)	10.1 µM (inactive)		14 µM (inactive)	35.6 µM (inactive)	42.2 µM (inactive)
c1ccc2c(NCCCCCCCCNc3cccc4ccccc34)cccc2c1	19.8 µM (inactive)	20.5 µM (inactive)	85.1 µM (inactive)	24.5 µM (inactive)	> 100 µM (inactive)	28.2 µM (inactive)	63.2 µM (inactive)	> 10 µM (inactive)	35.6 µM (inactive)	19.5 µM (inactive)	34.2 µM (inactive)	14.6 µM (inactive)	> 100 µM (inactive)	27 µM (inactive)	21.5 µM (inactive)		25.8	19.9 µM (inactive)	> 10 µM (inactive)	35.8 µM (inactive)
O=S(=O)(c1ccc(I)cc1)N(c1ccccc1)S(=O)(=O)C(F)(F)C(F)(F)C(F)(F)C(F)(F)F	19.9 µM (inactive)	25.5 µM (inactive)	22.9 µM (inactive)	48 µM (inactive)		24.5 µM (inactive)	75.2 µM (inactive)	42.7 µM (inactive)	> 100 µM (inactive)	40.6 µM (inactive)		40.9 µM (inactive)	24 µM (inactive)	35.6 µM (inactive)	41.6 µM (inactive)	96.2 µM (inactive)	41.2	34.8 µM (inactive)	40.8 µM (inactive)	29.2 µM (inactive)
CC(=O)Oc1ccccc1[C@H]1CC(=O)C[C@H](c2ccccc2OC(C)=O)C12C(=O)c1ccccc1C2=O	29.4 µM (inactive)	13 µM (inactive)	27.6 µM (inactive)	39.6 µM (inactive)	25.5 µM (inactive)	65.6 µM (inactive)	38.9 µM (inactive)	59.6 µM (inactive)	37.4 µM (inactive)	17 µM (inactive)		10.9 µM (inactive)	22.6 µM (inactive)		12.7 µM (inactive)		26.2	19.9 µM (inactive)		23.5 µM (inactive)
Cc1[nH]c(=O)[nH]c(=O)c1/C=C/C(=O)NC(CO)CC(C)C (stereo unspecified)	322 µM (inactive)	> 375 µM (inactive)	> 375 µM (inactive)	160 µM (inactive)	222 µM (inactive)	214 µM (inactive)	> 343 µM (inactive)	> 375 µM (inactive)	274 µM (inactive)	305 µM (inactive)	> 375 µM (inactive)	181 µM (inactive)	> 375 µM (inactive)	> 375 µM (inactive)	179 µM (inactive)	> 375 µM (inactive)	> 360		> 375 µM (inactive)	> 305 µM (inactive)
COc1ccc(CCn2nccc2C)cc1	> 100 µM (inactive)	> 100 µM (inactive)		> 100 µM (inactive)		> 100 µM (inactive)	> 100 µM (inactive)	> 100 µM (inactive)	80.9 µM (inactive)	> 100 µM (inactive)		> 100 µM (inactive)	> 100 µM (inactive)	> 100 µM (inactive)	> 100 µM (inactive)	> 100 µM (inactive)	> 100	> 100 µM (inactive)	93.8 µM (inactive)	
CC1(Cl)CC2C(CC1Sc1nnnn1-c1ccccc1)C2(C)C (stereo unspecified)	69.8 µM (inactive)	98.9 µM (inactive)	> 100 µM (inactive)	> 100 µM (inactive)	> 100 µM (inactive)	> 100 µM (inactive)		27.8 µM (inactive)	> 100 µM (inactive)	> 100 µM (inactive)	> 100 µM (inactive)	36.7 µM (inactive)	40.8 µM (inactive)	> 100 µM (inactive)	32.4 µM (inactive)	> 100 µM (inactive)	41.3	> 100 µM (inactive)	28.1 µM (inactive)	> 100 µM (inactive)
CSCC[C@@H](NC(=O)[C@H](CC(C)C)NC(=O)C(Cc1cnc[nH]1)NC(=O)CNC(=O)[C@@H](NC(=O)[C@H](C)NC(=O)[C@H](Cc1cn(C=O)c2ccccc12)NC(=O)[C@H](CCC(N)=O)NC(=O)[C@@H](N)CC(N)=O)C(C)C)C(N)=O (stereo partly specified)	> 100 µM (inactive)	> 100 µM (inactive)	> 100 µM (inactive)	> 100 µM (inactive)	> 100 µM (inactive)	> 100 µM (inactive)	> 100 µM (inactive)	> 100 µM (inactive)	> 100 µM (inactive)	> 100 µM (inactive)	> 100 µM (inactive)	> 100 µM (inactive)	> 100 µM (inactive)	> 100 µM (inactive)	> 100 µM (inactive)	53.8 µM (inactive)	> 100		> 100 µM (inactive)	> 100 µM (inactive)
NCCCCCC(CCN)SCC1OC(n2cnc3c(N)ncnc32)C(O)C1O (stereo unspecified)	233 µM (inactive)	537 µM (inactive)	589 µM (inactive)	> 708 µM (inactive)	> 1150 µM (inactive)	> 1440 µM (inactive)	687 µM (inactive)	292 µM (inactive)	> 574 µM (inactive)	578 µM (inactive)	> 1500 µM (inactive)	891 µM (inactive)	469 µM (inactive)	483 µM (inactive)	436 µM (inactive)	> 1060 µM (inactive)	> 946		> 555 µM (inactive)	> 1500 µM (inactive)
COc1c(O)c(C=O)c2c(O)c(-c3c(C)cc4c(C(C)C)c(OC)c(O)c(C=O)c4c3O)c(C)cc2c1C(C)C [6,6'-METHOXYGOSSYPOL]	2.61 µM (inactive)	11.9 µM (inactive)	2.43 µM (inactive)	3.74 µM (inactive)	2.65 µM (inactive)	3.86 µM (inactive)	3.2 µM (inactive)	4.32 µM (inactive)	2.74 µM (inactive)	6.61 µM (inactive)	4.38 µM (inactive)	5.16 µM (inactive)	4.19 µM (inactive)	4.36 µM (inactive)	11.8 µM (inactive)		3.74	9.86 µM (inactive)	4.86 µM (inactive)	4.45 µM (inactive)
